# Source: patent publication US5661167A, “Prolyl endopeptidase inhibitors” (Merrell Pharmaceuticals Inc., priority 1996, dated 1997)
# Molecular target: T1, Prolyl endopeptidase (Bos taurus, UniProt Q9XTA2)
# T1 construct: Prolyl endopeptidase was partially purified from bovine brain; from tissue; host or cells: bovine brain
# T1 sequence (Q9XTA2 1-710): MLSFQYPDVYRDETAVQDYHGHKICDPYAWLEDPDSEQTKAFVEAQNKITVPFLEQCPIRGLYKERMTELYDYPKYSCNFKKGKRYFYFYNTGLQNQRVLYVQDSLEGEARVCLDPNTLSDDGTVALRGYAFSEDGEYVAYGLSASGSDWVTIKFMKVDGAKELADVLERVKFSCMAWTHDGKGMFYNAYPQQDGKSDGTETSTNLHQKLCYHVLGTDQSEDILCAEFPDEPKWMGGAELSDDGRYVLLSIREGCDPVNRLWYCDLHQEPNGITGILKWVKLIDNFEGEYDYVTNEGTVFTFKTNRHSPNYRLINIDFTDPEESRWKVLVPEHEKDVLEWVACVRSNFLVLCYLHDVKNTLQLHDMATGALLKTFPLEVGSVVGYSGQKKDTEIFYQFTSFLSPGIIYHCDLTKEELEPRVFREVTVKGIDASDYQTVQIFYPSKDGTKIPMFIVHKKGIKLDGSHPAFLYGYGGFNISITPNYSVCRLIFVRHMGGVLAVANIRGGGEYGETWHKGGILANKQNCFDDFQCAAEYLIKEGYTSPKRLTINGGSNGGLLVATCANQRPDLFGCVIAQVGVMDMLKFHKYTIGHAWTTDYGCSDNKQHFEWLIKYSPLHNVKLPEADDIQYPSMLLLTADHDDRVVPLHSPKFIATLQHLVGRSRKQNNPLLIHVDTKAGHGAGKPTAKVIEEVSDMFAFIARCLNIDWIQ
# Test: Prolyl endopeptidase enzyme inhibition assay (CBz-Gly-Pro-p-nitroanilide substrate, absorbance at 410 nm)
# Type: biochemical
# Conditions: prolyl endopeptidase partially purified from bovine brain, buffer A (50 mM HEPES pH 7.4, 1 mM EDTA, 1 mM DTT), 37° C., [S]=50 μM, KM 11 μM, read-out: ENZYME INHIBITION (enzyme inhibition constant, Ki)
# Experimental: Prolyl endopeptidase was partially purified from bovine brain essentially as described by Yoshimoto et al. (Biochem., 94, 1179 (1983)) except that 50 mM HEPES, pH 7.4, was used instead of Tris buffer. This enzyme preparation is suitable for routine inhibition measurements; however, the enzyme may be further purified as described below. The state of purity of the enzyme is not expected to effect the measured Ki. The pellet from the 50%-80% ammonium sulfate cut is redissolved in the homogenization buffer and desalted by passage through a Pharmacia Mono Q column (0.5×5 cm) at 1 ml/min and the column is washed with 5 ml of buffer A to buffer B (total 20 ml; buffer A=50 mM HEPES, pH 7.4, 1 mM EDTA and 1 mM DTT; buffer B=buffer A+0.5M NaCl). Enzyme activity elutes at about [NaCl]=0.25M.
# The enzyme is assayed in buffer A (3.0 ml) at 37° C. containing 20 μM substrate (CBz-Gly-Pro-p-nitroanilide). The increase in absorbance at 410 nm is monitored (410 nm =8.4 mM^-1 cm^-1). Inhibitor stock solutions are made in DMSO. To characterize reversible competitive inhibitors, the initial rates in the presence of three inhibitor concentrations are measured using [S]=50 μM (KM for the substrate is 11 μM). If slow binding is observed, the final equilibrium rates are used.
# The Ki for a competitive inhibitor is calculated using known formulas: vo /vi =(1+[I]/Ki, app) and Ki =Ki, app/(1+[S]/KM), where vo is the initial rate in the absence of inhibitor, vi is the initial rate in the presence of inhibitor at the concentration [I], and [S] is the substrate concentration. If "slow binding" is observed (i.e. if the approach to the binding equilibrium is slow), the final steady-state rate rather than the initial rate is taken as vi.
# Enzyme inhibition constants were found using the described methods for various compounds of formula 1.
row,Ki [nM],Compound
1,1.4,"O=C(OCc1ccccc1)N1CCCC1C(=O)N1CCCC1C(=O)C(F)(F)C(F)(F)F (stereo not drawn) [EXAMPLE I, 2-[[2-(2,2,3,3,3-pentafluoro-1-oxopropyl)-1-pyrrolidinyl]carbonyl]-1-pyrrolidinecarboxylic acid, phenylmethyl ester]"
2,1,"O=C(OCc1ccccc1)N1CSCC1C(=O)N1CCCC1C(=O)C(F)(F)C(F)(F)F (stereo not drawn) [EXAMPLE II, 4-[[2-(2,2,3,3,3-pentafluoro-1-oxopropyl)-1-pyrrolidinyl]carbonyl]-3-thiazolidinecarboxylic acid, phenylmethyl ester]"
3,1,"CC(C)(C)OC(=O)N1CSCC1C(=O)N1CSCC1C(=O)C(F)(F)C(F)(F)F (stereo not drawn) [EXAMPLE IV, 4-[[4-(2,2,3,3,3-pentafluoro-1-oxopropyl)-3-thiazolidinyl]carbonyl]-3-thiazolidinecarboxylic acid, 1,1-dimethylethyl ester]"
